# In patent US10329304B2, “Compounds and methods for inhibition of hedgehog signaling and phosphodiesterase” (Vanderbilt University, priority 2014, dated 2019):
# Experiments:
# [1] = test system: mouse cardiomyocytes; test: Contractility of isolated mouse cardiomyocytes; format: cell-based
# From the text: (§1) To observe whether the effects of eggmanone administration are cardiomyocyte specific or due to off target effects, the contractility of individual mouse cardiomyocytes and the tone of ascending/descending aorta was observed. In mouse cardiomyocytes, Egm caused a 50% increase in contractility over vehicle control (FIG. 32).
# [2] = test system: otic kino-cilia motility; test: Video-microscopy of zebrafish otic kino-cilia; format: in vivo; conditions: 2 μM
# From the text: For visualizing ciliary beating, live embryos (20 hpf) were removed from their chorion, mounted in SeaPlaque low-melting agarose (Biowhittaker Molecular Applications) (1.0% in embryo medium) in microwells of glass-bottom culture dishes (MatTek), and covered with embryo medium. Movies were acquired by using OPENLAB software (Improvision) at 55 frames per second with a 63×DIC objective on a Zeiss Axiovert 200 inverted fluorescence microscope equipped with a Retiga Exi Fast camera (Qimaging). Kymographs were obtained by drawing a line across a ciliary trajectory by using ImageJ software (National Institutes of Health, developed by W. Rasband) and Multiple-Kymograph plugin (developed by J. Rietdorf and A. Seitz).
# [3] = test system: Daoy cells; test: Daoy cell proliferation (PH3 staining) and apoptosis (TUNEL); format: cell-based, human; conditions: 10 μM, 48-hours
# [4] = test system: mouse cardiomyocytes; test: Calcium handling in isolated mouse cardiomyocytes; format: cell-based; conditions: 10 μM
# From the text: as §1
# [5] = test system: RSV; test: RSV infection in mice (body weight, lung plaque assay); conditions: 20 mg/kg IP 3× daily
# [6] = test system: Gli1 transcription; test: Sufu−/− mouse embryonic fibroblasts qRT-PCR; format: cell-based; conditions: Gli1 and Ptch1
# [7] = test system: panel of 442 kinases; test: Kinase profiling assays (DiscoverRx, phage display model); format: binding
# Method: Profiling assays were not performed in-house. Compounds were shipped to the following companies for possible target identification: Kinase profiling assays were performed by DiscoverRx (San Diego, Calif.) using a phage display model; GPCR profiling assays were performed by Millipore (St. Louis, Mo.) using in cells expressing Gα15, a promiscuous G protein that enhances GPCR coupling to downstream Ca^2+ signaling pathways; phosphatase profiling assay was performed by Millipore (Dundee, UK).
# [8] = test system: RSV (respiratory syncytial virus); test: RSV CPE / plaque assay in HEp-2 cells; format: cell-based
# Method: In Table 11, the results of CPE assays following infection of human epidermoid cancer cells (HEp-2) with RSV. Even at 10,000 higher viral titers, our compound achieved complete inhibition at 10 μM. At 1 and 3 μM, the compound achieved over 98% reduction. The exemplary compound alone caused no apparent cytotoxicity at these concentrations.
# [9] = test system: cAMP; test: FRET-based cAMP sensors in NIH3T3 cells; format: cell-based; conditions: 2 μM
# From the text: To visualize changes in cAMP concentrations in individual cells and cellular regions, we utilized two distinct FRET (fluorescence resonance energy transfer)-based cAMP sensors: the Epac-FRET sensor (mTurquoiseΔ-Epac(CD, ΔDEP)-cp173 Venus-Venus)^35, which detects cytosolic cAMP concentration and the PKA-based cAMP sensor (PKAC-YFP and PKARII-CFP combination), which has been used to document changes in local cAMP levels in the centrosome and basal body.
structure (smiles),measurement,setting,value
"C=C(C)Cn1c(SCC(=O)c2cccs2)nc2sc3c(c2c1=O)CCCC3 [EGM, Eggmanone]",increase in contractility over vehicle control,[1],50%
same,Otic kino-cilia movement,[2],cilium movement is markedly reduced
same,Otic kino-cilia movement,[2]; listed as Egm,cilia movement is markedly reduced
same,Apoptosis (TUNEL staining),[3],increased apoptosis
same,Cell proliferation (phospho-histone H3 staining),[3],decreased cell proliferation
same,Calcium handling,[4],not associated with alterations in calcium handling
same,Normalized body weight,[5],slightly lower than that with control
same,Lung viral titer (plaque assay),[5]; day 3,significantly reduced viral titer at day 3
C=C(C)Cn1c(SCC(=O)c2ccccc2)nc2sc3c(c2c1=O)CCCC3 [Formula 9g],"Transcriptional inhibition in the Sufu−/− cell line, in words",[6],general ability to inhibit transcriptional activity
CCCn1c(SCC(=O)c2cccs2)nc2sc3c(c2c1=O)CCCC3 [Formula 9e],"Transcriptional inhibition in the Sufu−/− cell line, in words",[6],general ability to inhibit transcriptional activity
"C=C(C)Cn1c(SCC(=O)c2cccs2)nc2sc3c(c2c1=O)CCCC3 [Eggmanone, 3-(2-methylallyl)-2-((2-oxo-2-(thiophen-2-yl)ethyl)thio)-5,6,7,8-tetrahydrobenzo[4,5]thieno[2,3-d]pyrimidine-4(3H)-one]",agonist or antagonist activity,[7],did not exhibit significant agonist or antagonist activity
same,significant inhibition,[7],> 10 µM
same,Antiviral effect on RSV,[8],has antiviral effects
same,Otic kino-cilia movement,[2],markedly less motile
same,Otic kino-cilia movement,[2]; listed as eggmanone,markedly less motile
same,Cytosolic FRET signal (Epac-FRET sensor),[9],had no effect on the cytosolic FRET signal
same,cAMP levels by PKA-based cAMP sensor,[9],increased cAMP levels only at discrete regions
